From article PMC7397056, “Design, Facile Synthesis and Characterization of Dichloro Substituted Chalcones and Dihydropyrazole Derivatives for Their Antifungal, Antitubercular and Antiproliferative Activities” (Molecules, 2020)
In brackets after ≈: the same amount, converted by molar mass.

System: Mycobacterium tuberculosis H37Rv
Test: Antitubercular activity, broth dilution assay (MIC)
Assay type: cell-based
Conditions: Middlebrook 7H9 broth, 37 °C, 21 days

Compound | MIC
Fc1ccc(C2CC(c3ccc(Cl)c(Cl)c3)=NN2c2ccccc2)cc1 (centres unmarked) [Compound 18, 3-(3,4-dichlorophenyl)-1-phenyl-5-(4-fluorophenyl)-4,5-dihydro-1H-pyrazole] | 32.44 µM (≈ 12.5 µg/mL)
Fc1ccccc1C1CC(c2ccc(Cl)c(Cl)c2)=NN1c1ccccc1 (centres unmarked) [Compound 19, 3-(3,4-dichlorophenyl)-1-phenyl-5-(2-fluorophenyl)-4,5-dihydro-1H-pyrazole] | 32.44 µM (≈ 12.5 µg/mL)
Clc1ccc(C2CC(c3ccc(Cl)c(Cl)c3)=NN2c2ccccc2)cc1 (centres unmarked) [Compound 20, 3-(3,4-dichlorophenyl)-1-phenyl-5-(4-chlorophenyl)-4,5-dihydro-1H-pyrazole] | 31.11 µM (≈ 12.5 µg/mL)
Clc1ccc(C2=NN(c3ccccc3)C(c3ccccc3Cl)C2)cc1Cl (centres unmarked) [Compound 21, 3-(3,4-dichlorophenyl)-1-phenyl-5-(2-chlorophenyl)-4,5-dihydro-1H-pyrazole] | 15.55 µM (≈ 6.25 µg/mL)

Same assay, conditions: Mycobacterium tuberculosis, H37RV, 504 h, Middlebrook 7H9 broth, 37 °C, 21 days

Compound | MIC
Cc1ccc(/C=C/C(=O)c2ccc(Cl)c(Cl)c2)cc1 [Compound 2] | 343 µM (≈ 100 µg/mL)
O=C(/C=C/c1ccc(F)cc1)c1ccc(Cl)c(Cl)c1 [Compound 3] | 84.7 µM (≈ 25 µg/mL)
Clc1ccc(C2=NN(c3ccccc3)C(c3ccccc3Cl)C2)cc1Cl (centres unmarked) [Compound 21, 3-(3,4-dichlorophenyl)-1-phenyl-5-(2-chlorophenyl)-4,5-dihydro-1H-pyrazole] | 15.6 to 32.4 µM (≈ 6.25 to 13 µg/mL)

Same assay, conditions: ratio of MICs vs pyrazinamide (MIC 25.34 µM)

Compound | fold less activity than pyrazinamide | fold better activity than the standard pyrazinamide
Fc1ccc(C2CC(c3ccc(Cl)c(Cl)c3)=NN2c2ccccc2)cc1 (centres unmarked) [Compound 18, 3-(3,4-dichlorophenyl)-1-phenyl-5-(4-fluorophenyl)-4,5-dihydro-1H-pyrazole] | 1.2 fold | –
Fc1ccccc1C1CC(c2ccc(Cl)c(Cl)c2)=NN1c1ccccc1 (centres unmarked) [Compound 19, 3-(3,4-dichlorophenyl)-1-phenyl-5-(2-fluorophenyl)-4,5-dihydro-1H-pyrazole] | 1.2 fold | –
Clc1ccc(C2CC(c3ccc(Cl)c(Cl)c3)=NN2c2ccccc2)cc1 (centres unmarked) [Compound 20, 3-(3,4-dichlorophenyl)-1-phenyl-5-(4-chlorophenyl)-4,5-dihydro-1H-pyrazole] | 1.2 fold | –
Clc1ccc(C2=NN(c3ccccc3)C(c3ccccc3Cl)C2)cc1Cl (centres unmarked) [Compound 21, 3-(3,4-dichlorophenyl)-1-phenyl-5-(2-chlorophenyl)-4,5-dihydro-1H-pyrazole] | – | 1.6 fold

System: prostate cancer cell lines (DU-145)
Test: Antiproliferative activity, MTT assay
Assay type: cell-based
Conditions: Homo sapiens, 48 h, mean ± SD (n = 3)
Experimental: (§1) The antiproliferative activity of the compounds was determined their IC50 values. Methotrexate (Mtx; positive control) was used as a reference standard for comparing the antiproliferative activity of the target compounds. The MTT (3-(4,5-dimethylthiazol-2-yl)-2,5-diphenyl tetrazolium bromide) assay was based on the reduction of the soluble MTT (0.5 mg mL^−1, 100 µL) into a blue-purple formazan product, mainly by the activity of mitochondrial reductase enzymes inside the living cells. The prostate cancer cell lines, DU-145 cells, were cultured in Dulbecco’s Modified Eagle Medium (DMEM) media at 37 °C and humidified at 5% CO2. Stock solutions of the test compounds (17–46) were prepared in 0.1% DMSO followed by dilution with sterile water to obtain the desired final concentrations. Briefly, the cells were placed on 96-well plates at 100 µL total volume with the density of 1 × 10^4 cells per well and were allowed to adhere for 24 h. Then the medium was replaced with fresh media containing different dilutions of the test compounds and incubated for additional 48 h at 37 °C in DMEM with 10% fetal bovine serum (FBS) medium. Subsequently, the medium was replaced with 90 μL of fresh DMEM without FBS. The above wells were treated with 10 μL of MTT reagent (5 mg/mL of stock solution in DMEM without FBS) and incubated at 37 °C for 3–4 h. The formed blue formazan crystals were dissolved in 200 μL of DMSO. The optical density was determined at 570 nm using a micro plate reader. The assay was performed in triplicate for three independent experiments. The same experimentation was also done to confirm that the DMSO (negative control) had no effect in the study. The results had good reproducibility between replicate wells with standard errors below 10%. The antiproliferative activity results measured as IC50 values in µg/mL were converted and expressed in µM. Additionally, the cytotoxic activity of the compounds was also measured employing the same protocol discussed above to assess their toxicity on normal human cell lines (L02).

Compound | IC50
Cc1ccc(/C=C/C(=O)c2ccc(Cl)c(Cl)c2)cc1 [Compound 2] | 432 ± 2 µM
O=C(/C=C/c1ccc(F)cc1)c1ccc(Cl)c(Cl)c1 [Compound 3] | 176 ± 2 µM
Fc1ccc(C2CC(c3ccc(Cl)c(Cl)c3)=NN2c2ccccc2)cc1 (centres unmarked) [Compound 18, 3-(3,4-dichlorophenyl)-1-phenyl-5-(4-fluorophenyl)-4,5-dihydro-1H-pyrazole] | 119 ± 2 µM
Fc1ccccc1C1CC(c2ccc(Cl)c(Cl)c2)=NN1c1ccccc1 (centres unmarked) [Compound 19, 3-(3,4-dichlorophenyl)-1-phenyl-5-(2-fluorophenyl)-4,5-dihydro-1H-pyrazole] | 327 ± 2 µM
Clc1ccc(C2CC(c3ccc(Cl)c(Cl)c3)=NN2c2ccccc2)cc1 (centres unmarked) [Compound 20, 3-(3,4-dichlorophenyl)-1-phenyl-5-(4-chlorophenyl)-4,5-dihydro-1H-pyrazole] | 149 ± 2 µM
Clc1ccc(C2=NN(c3ccccc3)C(c3ccccc3Cl)C2)cc1Cl (centres unmarked) [Compound 21, 3-(3,4-dichlorophenyl)-1-phenyl-5-(2-chlorophenyl)-4,5-dihydro-1H-pyrazole] | 134 ± 2 µM

System: not listed separately
Test: Cytotoxic activity on normal cells, MTT assay
Assay type: cell-based
Conditions: L02 cells (normal human cell line)
Experimental: as §1

Compound | IC50 at 48 h
Cc1ccc(/C=C/C(=O)c2ccc(Cl)c(Cl)c2)cc1 [Compound 2] | > 50 µg/mL
O=C(/C=C/c1ccc(F)cc1)c1ccc(Cl)c(Cl)c1 [Compound 3] | > 50 µg/mL
Fc1ccc(C2CC(c3ccc(Cl)c(Cl)c3)=NN2c2ccccc2)cc1 (centres unmarked) [Compound 18, 3-(3,4-dichlorophenyl)-1-phenyl-5-(4-fluorophenyl)-4,5-dihydro-1H-pyrazole] | > 75 µg/mL
Fc1ccccc1C1CC(c2ccc(Cl)c(Cl)c2)=NN1c1ccccc1 (centres unmarked) [Compound 19, 3-(3,4-dichlorophenyl)-1-phenyl-5-(2-fluorophenyl)-4,5-dihydro-1H-pyrazole] | > 75 µg/mL
Clc1ccc(C2CC(c3ccc(Cl)c(Cl)c3)=NN2c2ccccc2)cc1 (centres unmarked) [Compound 20, 3-(3,4-dichlorophenyl)-1-phenyl-5-(4-chlorophenyl)-4,5-dihydro-1H-pyrazole] | > 75 µg/mL
Clc1ccc(C2=NN(c3ccccc3)C(c3ccccc3Cl)C2)cc1Cl (centres unmarked) [Compound 21, 3-(3,4-dichlorophenyl)-1-phenyl-5-(2-chlorophenyl)-4,5-dihydro-1H-pyrazole] | > 75 µg/mL

System: not given
Test: not given
Conditions: not given

Compound | melting point
Fc1ccc(C2CC(c3ccc(Cl)c(Cl)c3)=NN2c2ccccc2)cc1 (centres unmarked) [Compound 18, 3-(3,4-dichlorophenyl)-1-phenyl-5-(4-fluorophenyl)-4,5-dihydro-1H-pyrazole] | 195 °C
Fc1ccccc1C1CC(c2ccc(Cl)c(Cl)c2)=NN1c1ccccc1 (centres unmarked) [Compound 19, 3-(3,4-dichlorophenyl)-1-phenyl-5-(2-fluorophenyl)-4,5-dihydro-1H-pyrazole] | 149 °C
Clc1ccc(C2CC(c3ccc(Cl)c(Cl)c3)=NN2c2ccccc2)cc1 (centres unmarked) [Compound 20, 3-(3,4-dichlorophenyl)-1-phenyl-5-(4-chlorophenyl)-4,5-dihydro-1H-pyrazole] | 261 °C
Clc1ccc(C2=NN(c3ccccc3)C(c3ccccc3Cl)C2)cc1Cl (centres unmarked) [Compound 21, 3-(3,4-dichlorophenyl)-1-phenyl-5-(2-chlorophenyl)-4,5-dihydro-1H-pyrazole] | 133 °C

System: Aspergillus niger (ATCC-6275)
Test: Antifungal activity, serial tube dilution method (MIC)
Conditions: Aspergillus niger, ATCC6275, 18 h, read-out: Antifungal activity MIC, A. niger, serial tube dilution, 37 °C, 18 h, average of three

Compound | MIC
Cc1ccc(/C=C/C(=O)c2ccc(Cl)c(Cl)c2)cc1 [Compound 2] | 110 µM
O=C(/C=C/c1ccc(F)cc1)c1ccc(Cl)c(Cl)c1 [Compound 3] | 54.2 µM
Fc1ccc(C2CC(c3ccc(Cl)c(Cl)c3)=NN2c2ccccc2)cc1 (centres unmarked) [Compound 18, 3-(3,4-dichlorophenyl)-1-phenyl-5-(4-fluorophenyl)-4,5-dihydro-1H-pyrazole] | 28.8 µM
Fc1ccccc1C1CC(c2ccc(Cl)c(Cl)c2)=NN1c1ccccc1 (centres unmarked) [Compound 19, 3-(3,4-dichlorophenyl)-1-phenyl-5-(2-fluorophenyl)-4,5-dihydro-1H-pyrazole] | 20.8 µM
Clc1ccc(C2CC(c3ccc(Cl)c(Cl)c3)=NN2c2ccccc2)cc1 (centres unmarked) [Compound 20, 3-(3,4-dichlorophenyl)-1-phenyl-5-(4-chlorophenyl)-4,5-dihydro-1H-pyrazole] | 28.8 µM
Clc1ccc(C2=NN(c3ccccc3)C(c3ccccc3Cl)C2)cc1Cl (centres unmarked) [Compound 21, 3-(3,4-dichlorophenyl)-1-phenyl-5-(2-chlorophenyl)-4,5-dihydro-1H-pyrazole] | 19.9 µM

Same assay, conditions: Aspergillus niger, ATCC6275, read-out: Antifungal MIC, Aspergillus niger

Compound | MIC
Fc1ccc(C2CC(c3ccc(Cl)c(Cl)c3)=NN2c2ccccc2)cc1 (centres unmarked) [Compound 18, 3-(3,4-dichlorophenyl)-1-phenyl-5-(4-fluorophenyl)-4,5-dihydro-1H-pyrazole] | 20.8 µg/mL
Fc1ccccc1C1CC(c2ccc(Cl)c(Cl)c2)=NN1c1ccccc1 (centres unmarked) [Compound 19, 3-(3,4-dichlorophenyl)-1-phenyl-5-(2-fluorophenyl)-4,5-dihydro-1H-pyrazole] | 20.8 µg/mL
Clc1ccc(C2=NN(c3ccccc3)C(c3ccccc3Cl)C2)cc1Cl (centres unmarked) [Compound 21, 3-(3,4-dichlorophenyl)-1-phenyl-5-(2-chlorophenyl)-4,5-dihydro-1H-pyrazole] | 19.9 µg/mL

Same assay, conditions: serial tube dilution, 37 °C, 18 h, average of three

Compound | Antifungal activity MIC, A. niger
Fc1ccc(C2CC(c3ccc(Cl)c(Cl)c3)=NN2c2ccccc2)cc1 (centres unmarked) [Compound 18, 3-(3,4-dichlorophenyl)-1-phenyl-5-(4-fluorophenyl)-4,5-dihydro-1H-pyrazole] | 20.76 µM
Clc1ccc(C2CC(c3ccc(Cl)c(Cl)c3)=NN2c2ccccc2)cc1 (centres unmarked) [Compound 20, 3-(3,4-dichlorophenyl)-1-phenyl-5-(4-chlorophenyl)-4,5-dihydro-1H-pyrazole] | 19.91 µM

System: Candida tropicalis (ATCC-1369)
Test: as above
Conditions: Candida tropicalis, ATCC1369, 18 h, read-out: Antifungal activity MIC, C. tropicalis, serial tube dilution, 37 °C, 18 h, average of three

Compound | MIC
Cc1ccc(/C=C/C(=O)c2ccc(Cl)c(Cl)c2)cc1 [Compound 2] | 110 µM (≈ 32 µg/mL)
O=C(/C=C/c1ccc(F)cc1)c1ccc(Cl)c(Cl)c1 [Compound 3] | 54.2 µM (≈ 16 µg/mL)
Fc1ccc(C2CC(c3ccc(Cl)c(Cl)c3)=NN2c2ccccc2)cc1 (centres unmarked) [Compound 18, 3-(3,4-dichlorophenyl)-1-phenyl-5-(4-fluorophenyl)-4,5-dihydro-1H-pyrazole] | 41.5 µM (≈ 16 µg/mL)
Fc1ccccc1C1CC(c2ccc(Cl)c(Cl)c2)=NN1c1ccccc1 (centres unmarked) [Compound 19, 3-(3,4-dichlorophenyl)-1-phenyl-5-(2-fluorophenyl)-4,5-dihydro-1H-pyrazole] | 41.5 µM (≈ 16 µg/mL)
Clc1ccc(C2CC(c3ccc(Cl)c(Cl)c3)=NN2c2ccccc2)cc1 (centres unmarked) [Compound 20, 3-(3,4-dichlorophenyl)-1-phenyl-5-(4-chlorophenyl)-4,5-dihydro-1H-pyrazole] | 39.8 µM (≈ 16 µg/mL)
Clc1ccc(C2=NN(c3ccccc3)C(c3ccccc3Cl)C2)cc1Cl (centres unmarked) [Compound 21, 3-(3,4-dichlorophenyl)-1-phenyl-5-(2-chlorophenyl)-4,5-dihydro-1H-pyrazole] | 39.8 µM (≈ 16 µg/mL)
